According to ChEMBL document CHEMBL5523733, “Small Molecule Targeting PPM1A Activates Autophagy for Mycobacterium tuberculosis Host-Directed Therapy” (J Med Chem, 2024):
The source made the active and inactive calls. The rule behind the calls is not given here.

Assays:
Protein phosphatase 1A [1] = molecular target: T1, Protein phosphatase 1A (Homo sapiens, UniProt P35813); assay: Inhibition of recombinant human PPM1A using pNPP as substrate preincubated for 15 mins followed by substrate addition measured after 20 mins by absorbance based assay
T1 sequence (P35813 whole entry): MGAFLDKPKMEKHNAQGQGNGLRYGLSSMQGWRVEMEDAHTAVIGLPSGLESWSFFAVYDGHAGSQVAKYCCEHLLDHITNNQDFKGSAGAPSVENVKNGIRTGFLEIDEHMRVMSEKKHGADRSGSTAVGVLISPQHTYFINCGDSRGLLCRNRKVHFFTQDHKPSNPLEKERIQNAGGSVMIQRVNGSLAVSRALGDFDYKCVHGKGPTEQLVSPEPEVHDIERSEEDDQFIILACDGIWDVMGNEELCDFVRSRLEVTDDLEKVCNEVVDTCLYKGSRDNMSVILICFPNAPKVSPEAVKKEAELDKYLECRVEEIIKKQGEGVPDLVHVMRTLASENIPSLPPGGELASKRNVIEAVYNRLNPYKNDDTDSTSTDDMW

[2] = Cytotoxicity against human THP-1 cells by resazurin dye based assay; format: toxicity, cell-based
[3] = Cytotoxicity against human Caco-2 cells by resazurin dye based assay; format: toxicity, cell-based
[4] = system: Mycobacterium tuberculosis; assay: Anti-mycobacterial activity against Mycobacterium tuberculosis mc2 6206 assessed as bacterial growth inhibition at 20 uM incubated for 5 days by resazurin dye based assay; format: functional, organism-based; conditions: time 5.0 day
dsDNA [5] = assay: Binding affinity to dsDNA (unknown origin) assessed as reduction in fluorescence intensity at 5 uM relative to control; format: nucleic-acid assay; parameters: scale not given: the % may be the effect or the level left
THP-1 [6] = assay: Induction of DNA damage in human THP-1 monocytes assessed as increase in gamma-H2AX at 0.1 to 10 uM incubated for 24 hrs by Western blot analysis; format: toxicity, cell-based; conditions: thp-1, 24 h, dose 0.1-10 µM
THP-1 [7] = assay: Induction of DNA damage in human THP-1 macrophages assessed as increase in gamma-H2AX at 0.1 to 10 uM incubated for 24 hrs by Western blot analysis; format: toxicity, cell-based; conditions: thp-1, 24 h, dose 0.1-10 µM
THP-1 [8] = assay: Cytotoxicity against human THP-1 monocytes assessed as cell viability at 0.1 to 10 uM incubated for 24 hrs by flow cytometry; format: toxicity, cell-based; conditions: thp-1, 24 h, dose 0.1-10 µM
THP-1 [9] = assay: Cytotoxicity against human THP-1 macrophages assessed as cell viability at 0.1 to 10 uM incubated for 24 hrs by flow cytometry; format: toxicity, cell-based; conditions: thp-1, 24 h, dose 0.1-10 µM
[10] = Toxicity in BALB/c mouse assessed as body weight change at 12.5 to 100 mg/kg, ip administered daily for 14 days; format: organism-based; conditions: in vivo, 336 h, dose 12.5-100 mg/kg, time 14 day
[11] = Toxicity in BALB/c mouse assessed as increase in stress level at 100 mg/kg, ip administered daily for 14 days; format: organism-based; conditions: in vivo, 336 h, time 14 day
[12] = Toxicity in BALB/c mouse assessed as increase in irritability at 100 mg/kg, ip administered daily for 14 days; format: organism-based; conditions: in vivo, 336 h, time 14 day
[13] = Toxicity in BALB/c mouse assessed as visible abnormality at 12.5 to 50 mg/kg, ip administered daily for 14 days; format: organism-based; conditions: in vivo, 336 h, dose 12.5-50 mg/kg, time 14 day
[14] = Toxicity in BALB/c mouse assessed as increase in brain weight at higher concentration administered intraperitoneally daily for 14 days; format: tissue-based; conditions: in vivo, ip, 336 h, time 14 day
[15] = Toxicity in BALB/c mouse assessed as change in spleen weight at 12.5 to 100 mg/kg, ip administered daily for 14 days; format: organism-based; conditions: in vivo, 336 h, dose 12.5-100 mg/kg, time 14 day
[16] = Toxicity in BALB/c mouse assessed as change in kidney weight at 12.5 to 100 mg/kg, ip administered daily for 14 days; format: organism-based; conditions: in vivo, 336 h, dose 12.5-100 mg/kg, time 14 day
[17] = Toxicity in BALB/c mouse assessed as change in liver weight at 12.5 to 100 mg/kg, ip administered daily for 14 days; format: organism-based; conditions: in vivo, 336 h, dose 12.5-100 mg/kg, time 14 day
[18] = Toxicity in BALB/c mouse assessed as change in lung weight at 12.5 to 100 mg/kg, ip administered daily for 14 days; format: organism-based; conditions: in vivo, 336 h, dose 12.5-100 mg/kg, time 14 day
[19] = Half life in ICR mouse at 10 mg/kg, po measured for 24 hrs; format: ADME, organism-based; conditions: in vivo
[20] = Tmax in ICR mouse at 10 mg/kg, po measured for 24 hrs; format: ADME, organism-based; conditions: in vivo
[21] = Cmax in ICR mouse at 10 mg/kg, po measured for 24 hrs; format: ADME, organism-based; conditions: in vivo
[22] = AUClast in ICR mouse at 10 mg/kg, po measured for 24 hrs; format: ADME, organism-based; conditions: in vivo
[23] = AUC (infinity) in ICR mouse at 10 mg/kg, po measured for 24 hrs; format: ADME, organism-based; conditions: in vivo
[24] = Oral bioavailability in ICR mouse at 10 mg/kg measured for 24 hrs; format: ADME, organism-based; conditions: in vivo
[25] = Half life in ICR mouse at 2 mg/kg, iv measured for 24 hrs; format: ADME, organism-based; conditions: in vivo
[26] = AUClast in ICR mouse at 2 mg/kg, iv measured for 24 hrs; format: ADME, organism-based; conditions: in vivo
[27] = AUC (infinity) in ICR mouse at 2 mg/kg, iv measured for 24 hrs; format: ADME, organism-based; conditions: in vivo
[28] = Clearance in ICR mouse at 2 mg/kg, iv measured for 24 hrs; format: ADME, organism-based; conditions: in vivo
THP-1 [29] = assay: Induction of autophagy in human THP-1 macrophages assessed as increase in p62 phosphorylation at S403 incubated for 24 hrs in presence of bafilomycin by Western blot analysis; format: functional, cell-based; conditions: dose 0.25-8 µM
THP-1 [30] = assay: Induction of autophagy in human THP-1 macrophages assessed as increase in lipidated LC3-II level at 0.25 to 8 uM incubated for 24 hrs in presence of bafilomycin by Western blot analysis; format: functional, cell-based; conditions: dose 0.25-8 µM
[31] = Toxicity in BALB/c mouse infected with Mycobacterium tuberculosis mc2 6206 assessed as body weight loss at 12.5 to 50 mg/kg, ip administered daily for 8 days; format: organism-based; conditions: in vivo, 192 h, dose 12.5-50 mg/kg, time 8 day
[32] = Toxicity in BALB/c mouse infected with Mycobacterium tuberculosis mc2 6206 assessed as visible toxic signs at 12.5 to 50 mg/kg, ip administered daily for 8 days; format: organism-based; conditions: in vivo, 192 h, dose 12.5-50 mg/kg, time 8 day
[33] = system: Mycobacterium tuberculosis; assay: Anti-mycobacterial activity against Mycobacterium tuberculosis mc2 6206 infected in BALB/c mouse assessed as reduction in bacterial burden in spleen administered intraperitoneally daily for 8 days; format: functional, organism-based; conditions: dose 12.5-50 mg/kg, route ip, time 8.0 day
[34] = system: Mycobacterium tuberculosis; assay: Inhibition of Mycobacterium tuberculosis mc2 6206 burden in lung of BALB/c mouse infected with at 12.5 to 50 mg/kg, ip administered daily for 8 days; format: functional, organism-based; conditions: dose 12.5-50 mg/kg, time 8.0 day
Protein phosphatase 1A [35] = molecular target: T1, Protein phosphatase 1A; assay: Inhibition of PPM1A (unknown origin)
dsDNA [36] = assay: Binding affinity to dsDNA (unknown origin) assessed as reduction in fluorescence intensity at 5 uM; format: nucleic-acid assay
dsDNA [37] = assay: Binding affinity to dsDNA (unknown origin) of 5 uM assessed as reduction in fluorescence intensity at 5 uM relative to control; format: nucleic-acid assay; parameters: scale not given: the % may be the effect or the level left
dsDNA [38] = assay: Binding affinity to dsDNA (unknown origin) of 10 uM assessed as reduction in fluorescence intensity at 5 uM relative to control; format: nucleic-acid assay; parameters: scale not given: the % may be the effect or the level left
THP-1 [39] = assay: Induction of DNA damage in human THP-1 monocytes assessed as increase in gamma-H2AX at 1 uM incubated for 24 hrs by Western blot analysis; format: toxicity, cell-based; conditions: thp-1, 24 h
THP-1 [40] = assay: Cytotoxicity against human THP-1 monocytes assessed as cell viability at 10 uM incubated for 24 hrs by flow cytometry; format: toxicity, cell-based; conditions: thp-1, 24 h
THP-1 [41] = assay: Induction of DNA damage in human THP-1 macrophages assessed as increase in gamma-H2AX at 10 uM incubated for 24 hrs by Western blot analysis; format: toxicity, cell-based; conditions: thp-1, 24 h

SMILES: COc1cc2c[n+](CCO)c3ccc(F)cc3c2cc1C#Cc1ccccc1
- IC50 (Protein phosphatase 1A [1]): > 10 µM

SMILES: COc1cc2c[n+](CCO)c3ccc(F)cc3c2cc1C1CC1
- IC50 (Protein phosphatase 1A [1]): > 20 µM

SMILES: CCOc1ccc2c(c1)c[n+](CCO)c1ccc(F)cc21.[Br-]
- IC50 (Protein phosphatase 1A [1]): 0.18 µM
- Ki (Protein phosphatase 1A [1]): 0.59 µM
- CC50 [2]: 138 µM
- CC50 [3]: > 200 µM
- inhibition [4]: inactive
- Activity (dsDNA [5]): 10%
- Activity (THP-1 [6]): Non-Toxic
- Activity (THP-1 [7]): Non-Toxic
- Activity (THP-1 [8]): Non-Toxic
- Activity (THP-1 [9]): Non-Toxic
- Activity [10]: Non-Toxic
- Activity [11]: Toxic
- Activity [12]: Toxic
- Activity [13]: Non-Toxic
- Activity [14]: Toxic
- Activity [15]: Non-Toxic
- Activity [16]: Non-Toxic
- Activity [17]: Non-Toxic
- Activity [18]: Non-Toxic
- half-life [19]: 46.3 min
- Tmax [20]: 15 min
- Cmax [21]: 908 ng/mL
- AUC(0-t) at 24 h [22]: 759 ng·h/mL
- AUC(0-inf) [23]: 761 ng·h/mL
- bioavailability [24]: 73.7%
- half-life [25]: 38 min
- AUC(0-t) at 24 h [26]: 206 ng·h/mL
- AUC(0-inf) [27]: 208 ng·h/mL
- clearance [28]: 170 mL/min/kg
- Activity (THP-1 [29]): Dose-Dependent Effect
- Activity (THP-1 [30]): Active
- Activity [31]: Non-Toxic
- Activity [32]: Non-Toxic
- Activity [33]: Dose-Dependent Effect
- inhibition [34]: inactive

SMILES: CCOc1ccc2c(c1)c[n+](CCO)c1ccc(OC)cc21
- IC50 (Protein phosphatase 1A [1]): > 20 µM

SMILES: COc1ccc2c(c1)c[n+](CCO)c1ccc(OC)cc21
- IC50 (Protein phosphatase 1A [1]): 2.6 µM
- CC50 [2]: 47.2 µM
- CC50 [3]: > 200 µM

SMILES: COc1cc2c[n+](CCO)c3ccc(F)cc3c2cc1OC
- IC50 (Protein phosphatase 1A [1]): > 20 µM

SMILES: COc1ccc2c(c1)c[n+](CCO)c1ccc(F)cc21.[Br-]
- IC50 (Protein phosphatase 1A [35]): 1.19 µM
- Ki (Protein phosphatase 1A [35]): 0.84 µM
- IC50 (Protein phosphatase 1A [1]): 1.19 µM
- CC50 [2]: 94.8 µM
- CC50 [3]: > 200 µM
- Activity (dsDNA [36]): inactive
- Activity (THP-1 [6]): Non-Toxic
- Activity (THP-1 [7]): Non-Toxic
- Activity (THP-1 [8]): Non-Toxic
- Activity (THP-1 [9]): Non-Toxic

SMILES: COc1ccc2c(c1)c1ccc(OC(F)(F)F)cc1c[n+]2CCO
- IC50 (Protein phosphatase 1A [1]): 3.06 µM

SMILES: CC(C)Oc1ccc2c(c1)c[n+](CCO)c1ccc(F)cc21
- IC50 (Protein phosphatase 1A [1]): 3.72 µM

SMILES: C[n+]1cc2c3c(ccc2c2ccc4cc5c(cc4c21)OCO5)OCO3 [SANGUINARIUM]
- Activity (dsDNA [37]): 84%
- Activity (dsDNA [38]): 93%
- Activity (THP-1 [39]): Toxic
- Activity (THP-1 [40]): Toxic
- Activity (THP-1 [41]): Toxic

SMILES: COc1ccc2c(c1)c[n+](CCO)c1cc(F)ccc21
- IC50 (Protein phosphatase 1A [1]): > 20 µM

SMILES: COc1ccc2c(c1)c[n+](CCCO)c1ccc(F)cc21
- IC50 (Protein phosphatase 1A [1]): > 10 µM

SMILES: COc1ccc2c(c1)c[n+](Cc1cccc(O)c1)c1ccc(F)cc21
- IC50 (Protein phosphatase 1A [1]): > 20 µM

SMILES: OCC[n+]1cc2cc3c(cc2c2cc(F)ccc21)OCO3
- IC50 (Protein phosphatase 1A [1]): > 20 µM

SMILES: Cc1ccc2c(c1)c[n+](CCO)c1ccc(F)cc21
- IC50 (Protein phosphatase 1A [1]): > 20 µM

SMILES: OCC[n+]1cc2cc(OC(F)(F)F)ccc2c2cc(F)ccc21
- IC50 (Protein phosphatase 1A [1]): 1.43 µM
- CC50 [2]: > 200 µM
- CC50 [3]: > 200 µM

SMILES: COc1cc2c[n+](CCO)c3ccc(F)cc3c2cc1-c1cc(C)cc(C)c1
- IC50 (Protein phosphatase 1A [1]): > 20 µM

SMILES: COc1ccc2c(c1)c[n+](CC(C)O)c1ccc(F)cc21 (configuration not stated)
- IC50 (Protein phosphatase 1A [1]): > 20 µM

SMILES: COc1ccc(-c2cc3c(cc2OC)c[n+](CCO)c2ccc(F)cc32)cc1
- IC50 (Protein phosphatase 1A [1]): 0.29 µM
- CC50 [2]: 37.2 µM
- CC50 [3]: 74.6 µM
